These results are taken from ChEMBL document CHEMBL3046581, “Synthesis and cytotoxic activity of diaryl urea derivatives with a 4-methylpiperazinylcarbonyl moiety” (Med Chem Res, 2013).

For assay [1], the system named is PC-3. The assay is described as follows: Cytotoxicity against Homo sapiens (human) PC3 cells assessed as growth inhibition at 100 uM after 48 hr by MTT assay. The class given is functional. To be noted: PC-3, 48 h, read-out: GI. Background: Tetrazolium dyes change colour on reduction, which living cells bring about.
The test system of assay [2] is A549. Briefly: Cytotoxicity against Homo sapiens (human) A549 cells assessed as growth inhibition at 100 uM after 48 hr by MTT assay. The class given is functional. Conditions: A549, 48 h, read-out: GI.
Assay [3] concerns A549. Briefly: Cytotoxicity against Homo sapiens (human) A549 cells assessed as growth inhibition after 48 hr by MTT assay. The assay is classed as functional, cell-based. Conditions: for IC50: Homo sapiens, A549, 48 h.
For assay [4], the system named is PC-3. Briefly: Cytotoxicity against Homo sapiens (human) PC3 cells assessed as growth inhibition after 48 hr by MTT assay. The assay is classed as functional.

Consider `CN1CCN(C(=O)c2ccc(NC(=O)Nc3ccc(F)c(Cl)c3)cc2)CC1`, for which the inhibition of growth at 100 µM with PC-3 [1] is 29.9%; with A549 [2], 28.4%.
Turning to `CN1CCN(C(=O)c2ccc(NC(=O)Nc3ccc(F)c(F)c3)cc2)CC1`, the inhibition of growth at 100 µM in the assay with PC-3 [1] came out at 27.6%; in the assay on A549 [2] it was 43.1%.
For the compound `C#Cc1cccc(NC(=O)Nc2ccc(C(=O)N3CCN(C)CC3)cc2)c1`, the figures for the inhibition of growth at 100 µM in the assay on PC-3 [1] and in the assay with A549 [2] were 49.3% and 45.4%, respectively.
For `CN1CCN(C(=O)c2ccc(NC(=O)Nc3cccc(C(=O)N4CCCCC4)c3)cc2)CC1`, the inhibition of growth at 100 µM in the assay with PC-3 [1] stood at 31.1%; in the assay with A549 [2], 19.7%.
A word on the IC50: it is the concentration needed to halve the response being measured. As to `CN1CCN(C(=O)c2ccc(NC(=O)Nc3ccc(OCc4cccc(F)c4)c(Cl)c3)cc2)CC1`, the IC50 in the assay on A549 [3] was 10.8 µM. Moreover, the inhibition of growth at 100 µM worked out at 82.7% in the assay with PC-3 [1] and 74% with A549 [2].
Regarding `CN1CCN(C(=O)c2ccc(NC(=O)Nc3ccc(Cl)c(C(F)(F)F)c3)cc2)CC1`, the results for the inhibition of growth at 100 µM in the assay with PC-3 [1] and in the assay on A549 [2] were 25.5% and 22.6%, respectively.
For the compound `CNC(=O)c1cc(Oc2ccc(NC(=O)Nc3ccc(Cl)c(C(F)(F)F)c3)cc2)ccn1` [SORAFENIB], the “growth inhibition (GI)” value was “Dose-dependent effect” in the assay on A549 [3], 94.8% in the assay on A549 [3] (record 2) and 91.4% in the assay on PC-3 [4]. The half-inhibitory concentration (IC50) in the assay on A549 [3] was 6.08 µM.
For the compound `CN1CCN(C(=O)c2ccc(NC(=O)Nc3cccc(C(F)(F)F)c3)cc2)CC1`, the results for the inhibition of growth at 100 µM in the assay on PC-3 [1] and with A549 [2] were 37.1% and 21.2%, respectively.
For `Cc1cc(NC(=O)Nc2ccc(C(=O)N3CCN(C)CC3)cc2)ccc1Cl`, in that order: 35.1% and 27.5%.
On to `CC(=O)Nc1nc2ccc(NC(=O)Nc3ccc(C(=O)N4CCN(C)CC4)cc3)cc2s1`, for which, in the assay with A549 [3], the “growth inhibition (GI)” value is “Dose-dependent effect” and the IC50 turned out to be 0.57 µM. In the assay with A549 [2], the inhibition of growth at 100 µM amounted to 93.5%.
Regarding `COc1cc(NC(=O)Nc2ccc(C(=O)N3CCN(C)CC3)cc2)cc(OC)c1`, the figures for the inhibition of growth at 100 µM with PC-3 [1] and with A549 [2] were 40% and 28.6%, respectively.
In the case of `CN1CCN(C(=O)c2ccc(NC(=O)Nc3ccc(Cl)c(Cl)c3)cc2)CC1`, the inhibition of growth at 100 µM in the assay on PC-3 [1] was found to be 28%; in the assay with A549 [2], 36.5%.
